TGI data for 25 compounds are collected here from PubChem BioAssay (NCI).

Experiment in all cases: growth of human tumour cells (NCI), 48 h
Assay [1] deals with NCI-H23 lung.
For assay [2], the system named is A498 renal.
The test system of assay [3] is NCI-H460 lung.
In assay [4] the test system is OVCAR-3 ovarian.
The test system of assay [5] is A549 NSCLC.
For assay [6], the system named is SW-620 colon.
The test system of assay [7] is CAKI-1 renal.
Assay [8] deals with MOLT-4 leukemia.
Assay [9] relates to MDA-N.
Assay [10] deals with MCF7 breast.
Assay [11] concerns MDA-MB-435.

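Five concentrations, 48 hours, 96-well plates. TGI: concentration producing complete growth inhibition.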

Regarding `N#CC12CNCC1CN=N2` (stereo not given), the TGI in [1], in [2], in [3], in assay [4], in [5] and in [6] was over 100 µM each time. In addition, the TGI in [7], in assay [8], in [9], in assay [10] and in assay [11] was over 100 µM each time.

With `COc1ccc(CC2CCc3nc(N)nc(N)c3C2)cc1OC` (stereo not given), the TGI in assay [1] was over 50 µM; in assay [2] it was over 100 µM; in [3], over 48.6 µM; in assay [4] it was over 100 µM; in assay [5] it was over 53.1 µM; in assay [6] it was over 100 µM. For the same compound, the TGI in assay [7] was over 100 µM; in [8] it was over 100 µM; in assay [9], over 44 µM; in [10] it was over 44.4 µM; in assay [11], over 100 µM.

Consider `N#CC1C(=O)N(c2ccccc2)NC12OC(=O)c1ccncc12` (stereo not given), for which the TGI in assay [1], in assay [2], in assay [3], in assay [4], in assay [5] and in assay [6] was over 20 µM throughout. Moreover, the TGI in [7], in assay [8], in assay [9], in assay [10] and in assay [11] was over 20 µM in each case.

For the compound `C[N+](C)(C)CCCSc1nc2ccccc2[nH]1`, the TGI in assay [1], in assay [2], in [3], in assay [4], in [5] and in assay [6] was over 100 µM in each case. Also, the TGI in [7], in assay [8], in [9], in assay [10] and in [11] was over 100 µM in each case.

As to `OC1(c2ccc(Cl)cc2)C(N2CCCC2)c2ccccc2C2=NCCN21` (stereo not given), the TGI in assay [1] is 92.7 µM; in assay [2], 60.9 µM; in assay [3], over 100 µM; in [4], over 100 µM; in [5] it was over 100 µM; in assay [6], over 100 µM. The TGI in assay [7] came out at 94.6 µM; in [8] it was 93.8 µM; in assay [9], 51.4 µM; in assay [10] it was 94.8 µM; in assay [11] it was 86.7 µM.

`CC(C)NC(NC(C)C)=C(S(=O)(=O)C(F)(F)C(F)(F)C(F)(F)C(F)(F)F)S(=O)(=O)C(F)(F)C(F)(F)C(F)(F)C(F)(F)F`: the TGI in assay [1], in assay [2], in assay [3], in assay [4], in [5] and in [6] was over 100 µM in each case. For the same compound, the TGI in [7], in [8], in [9], in assay [10] and in [11] was over 100 µM each time.

For `CC1(C)C2CCC(CN)(C2)C1N` (stereo not given), the TGI in [1], in [2], in assay [3], in [4], in [5] and in assay [6] was over 100 µM each time. Besides, the TGI in [7], in assay [8], in [9], in [10] and in [11] was over 100 µM throughout.

On to `Nc1nc(I)nc2c1ncn2C1OC(COS(N)(=O)=O)C(O)C1O` (stereo not given), for which the TGI in [1] is 0.0324 µM; in assay [2], under 0.01 µM; in assay [3], 0.108 µM; in [4], 0.012 µM; in assay [5] it was 0.201 µM; in assay [6] it was 0.165 µM. Besides, the TGI is 0.129 µM in assay [7]; 0.0416 µM in assay [8]; 0.0135 µM in [9]; 0.207 µM in assay [10]; 0.0138 µM in assay [11].

Regarding `CC(=O)N(C(C)=O)n1c(Cc2ccc(Cl)cc2)n[nH]c1=O`, the TGI in assay [1], in assay [2], in assay [3], in assay [4], in [5] and in [6] was over 100 µM throughout. The TGI in [7], in assay [8], in assay [9], in assay [10] and in assay [11] was over 100 µM in each case.

For `COC(=O)C1=C(O)C(C(=O)OC)[C@]2(O)[C@H](C(=O)OC)[C@H]1C[C@@H](c1ccc(OC)c(OC)c1)[C@H]2C(=O)OC` (stereo not given in full), the TGI was over 100 µM in assay [1]; 54.7 µM in assay [2]; 42.1 µM in [3]; 62.5 µM in assay [4]; 54.4 µM in assay [5]; over 100 µM in assay [6]. For the same compound, the TGI in [7] is over 100 µM; in assay [8] it was 69.8 µM; in [9], over 100 µM; in [10] it was over 100 µM; in assay [11], 44.2 µM.

`N#Cc1c(=O)n(-c2ccccc2)c(O)c2c(N)n[nH]c12`: the TGI in assay [1], in [2], in [3], in assay [4], in [5] and in [6] was over 100 µM each time. The TGI in assay [7], in [8], in assay [9], in [10] and in [11] was over 100 µM each time.

`Cc1ccc(S(=O)(=O)c2ccsc2NC(=O)C(F)(F)F)cc1`: the TGI in [1], in assay [2], in [3], in assay [4], in assay [5] and in assay [6] was over 100 µM in each case. Moreover, the TGI in [7] is 82.6 µM; in assay [8] it was 45.9 µM; in assay [9], 98.9 µM; in assay [10] it was over 100 µM; in [11], over 100 µM.

In the case of `Nc1nc(Cl)c(CO)c(NCC2(CO)CC(CCc3ccccc3)C2)n1` (stereo not given), the TGI in assay [1] was 37.5 µM; in assay [2] it was over 100 µM; in [3] it was 56.9 µM; in assay [4], 63.1 µM; in assay [5], 34.5 µM; in [6], 54.2 µM. For the same compound, the TGI in assay [7] was over 100 µM; in assay [8], 14.7 µM; in assay [9], over 100 µM; in [10], 45.5 µM; in [11] it was 26.5 µM.

For `O=C1N=C(SC2OC(CO)C(O)C(O)C2O)S/C1=C\c1ccccc1` (stereo not given), the TGI in assay [1], in [2], in [3], in [4], in assay [5] and in assay [6] was over 100 µM in each case. Moreover, the TGI in [7], in assay [8], in assay [9], in assay [10] and in assay [11] was over 100 µM each time.

`CC(=N)OC1CC2CCC1(C)C2(C)C` (stereo not given): the TGI in [1], in assay [2], in assay [3], in [4], in assay [5] and in assay [6] was over 100 µM each time. Also, the TGI in assay [7], in [8], in assay [9], in assay [10] and in [11] was over 100 µM each time.

Turning to `CN(CCC(=O)O)C1=Nc2ccc(Cl)cc2C(c2ccccc2)=[N+]([O-])C1`, the TGI in assay [1], in assay [2], in [3], in assay [4], in [5] and in assay [6] was over 100 µM in each case. The TGI in assay [7], in [8], in assay [9], in [10] and in assay [11] was over 100 µM throughout.

`CCOC(=O)c1oc2cc3c(c4c2c1-c1ccccc1N4C)C=CC(C)(C)O3`: the TGI in [1] is over 67.4 µM; in assay [2], over 71.4 µM; in assay [3], over 100 µM; in assay [4], 45.3 µM; in [5] it was over 100 µM; in assay [6] it was over 100 µM. The TGI in [7] was 40.8 µM; in assay [8], over 100 µM; in assay [9], over 100 µM; in [10], 26.8 µM; in assay [11] it was over 100 µM.

On to `C/C(Cl)=N/OC(=O)Nc1ccc(S(N)(=O)=O)c(C)c1`, for which the TGI was 39.3 µM in assay [1]; 41.3 µM in assay [2]; over 100 µM in [3]; 8.9 µM in [4]; 38.3 µM in [5]; 3.27 µM in assay [6]. Further, the TGI worked out at 3.23 µM in assay [7]; 6.12 µM in [8]; 24.4 µM in assay [9]; 29.1 µM in assay [10]; 29.6 µM in assay [11].

As for `O=c1[nH]nc(-c2ccccc2)n1-c1ccncc1`, the TGI in [1], in [2], in [3], in assay [4], in assay [5] and in assay [6] was over 100 µM in each case. The TGI in assay [7], in assay [8], in assay [9], in assay [10] and in [11] was over 100 µM each time.

As to `COC(=O)CC(c1cn(S(=O)(=O)c2ccc(C)cc2)c2ccccc12)C1C[C@@H](C(=O)OC)N(C(=O)OC(C)(C)C)C1=O` (stereo not given in full), the TGI in [1], in assay [2], in [3], in assay [4], in assay [5] and in assay [6] was over 100 µM each time. For the same compound, the TGI is over 100 µM in assay [7]; 21 µM in [8]; over 100 µM in assay [9]; over 100 µM in assay [10]; over 100 µM in assay [11].

As for `Nc1cccnc1NCC1(CO)CCCC1`, the TGI in assay [1], in assay [2], in assay [3], in assay [4], in assay [5] and in [6] was over 100 µM throughout. Also, the TGI in assay [7], in assay [8], in assay [9], in [10] and in [11] was over 100 µM throughout.

`O=C(O)CCC(=O)Nc1ccc2ccccc2c1`: the TGI in [1], in [2], in assay [3], in assay [4], in assay [5] and in assay [6] was over 100 µM each time. For the same compound, the TGI in assay [7], in assay [8], in assay [9], in [10] and in assay [11] was over 100 µM in each case.

For the compound `Cc1cc2cc3c(cc2c(-c2ccc([N+](=O)[O-])cc2)n1)OCO3`, the TGI in assay [1], in assay [2], in [3], in [4], in assay [5] and in assay [6] was over 100 µM in each case. In addition, the TGI in [7], in assay [8], in assay [9], in assay [10] and in [11] was over 100 µM in each case.

As for `CCCCCCCCCCCCN(CC(O)C(O)C(OC1OC(CO)C(O)C(O)C1O)C(O)CO)C(=O)CCCCCCCCCCC` (stereo not given), the TGI was found to be 46.2 µM in assay [1]; 41.8 µM in [2]; 39.7 µM in assay [3]; 49.2 µM in [4]; 55.3 µM in assay [5]; 33.6 µM in assay [6]. The TGI in [7] is 33.3 µM; in assay [8] it was 50.1 µM; in assay [9], 38.2 µM; in [10], over 100 µM; in assay [11], 30.8 µM.

Consider `c1nc(N2CC2)c2cnn(C3CCCCO3)c2n1` (stereo not given), for which the TGI in assay [1], in assay [2], in [3], in assay [4], in [5] and in [6] was over 100 µM throughout. The TGI in [7], in [8], in assay [9], in assay [10] and in [11] was over 100 µM each time.
